Data on 7 molecules can be found in publication PMC7256108 (Cellular and Molecular Life Sciences: CMLS, 2019).

Format in all cases: cell-based
In one experiment the target is T1, OR2W1 Y252A (Homo sapiens, UniProt Q9Y3N9, Y252A).
T1 construct: 39aa rho-tag; expressed in transfected cells; host or cells: NxG 108CC15 or HEK-293 cells
T1 sequence (Q9Y3N9 1-320 Y252A): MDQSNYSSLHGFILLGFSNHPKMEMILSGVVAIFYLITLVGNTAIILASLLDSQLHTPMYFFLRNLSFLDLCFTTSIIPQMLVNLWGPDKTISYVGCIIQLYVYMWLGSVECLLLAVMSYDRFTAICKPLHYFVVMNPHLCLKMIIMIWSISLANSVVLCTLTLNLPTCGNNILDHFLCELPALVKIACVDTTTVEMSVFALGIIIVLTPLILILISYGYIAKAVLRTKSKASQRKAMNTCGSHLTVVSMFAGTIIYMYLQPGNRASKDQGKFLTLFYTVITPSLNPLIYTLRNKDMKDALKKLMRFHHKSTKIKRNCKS
As to the kind of experiment: GloSensor assay, OR2W1 Y252A. Particulars: ligands 300 µmol/L. How it is done: (§1) All receptor variants used were generated by PCR-based site-directed mutagenesis in two steps. Gene-specific primers (mutation primers) were used according to Table S2 and Table S3. The mutation primers, which carried the changed nucleotides, were designed overlapping.
(§2) The assay was performed as reported above.
(§3) All data are presented as mean ± SD.

For a further experiment, the target named is T2, OR2W1 L202S (Homo sapiens, UniProt Q9Y3N9, L202S).
T2 construct: 39aa rho-tag; expressed in transfected cells; host or cells: NxG 108CC15 or HEK-293 cells
T2 sequence (Q9Y3N9 1-320 L202S): T1 sequence (Q9Y3N9 1-320 Y252A) with L202S, A252Y
As to the kind of experiment: GloSensor assay, OR2W1 L202S. How it is done:
as §1, §2, §3

The target of a further experiment is T3, OR2W1 L202C (Homo sapiens, UniProt Q9Y3N9, L202C).
T3 construct: full-length gene-specific forward and reverse primers were added; 39aa rho-tag; expressed in transfected cells; host or cells: NxG 108CC15 or HEK-293 cells
T3 sequence (Q9Y3N9 1-320 L202C): T1 sequence (Q9Y3N9 1-320 Y252A) with L202C, A252Y
As to the kind of experiment: GloSensor assay, OR2W1 L202C. The protocol: as §1, §2, §3

Another experiment addresses T4, OR2W1 wt (Homo sapiens, UniProt Q9Y3N9).
T4 construct: 39aa rho-tag; expressed in transfected cells; host or cells: NxG 108CC15 or HEK-293 cells
T4 sequence (Q9Y3N9 1-320): T1 sequence (Q9Y3N9 1-320 Y252A) with A252Y
As to the kind of experiment: cAMP-luminescence GloSensor assay, recombinant OR2W1 wt. The protocol: as §2, §3

The target of a further experiment is T5, OR2W1 S109A (Homo sapiens, UniProt Q9Y3N9, S109A).
T5 construct: 39aa rho-tag; expressed in transfected cells; host or cells: NxG 108CC15 or HEK-293 cells
T5 sequence (Q9Y3N9 1-320 S109A): T1 sequence (Q9Y3N9 1-320 Y252A) with S109A, A252Y
As to the kind of experiment: GloSensor assay, OR2W1 S109A. The protocol: as §1, §2, §3

The next experiment has as its target T6, OR2W1 Y252A/Y259A (Homo sapiens, UniProt Q9Y3N9, Y252A/Y259A).
T6 construct: full-length gene-specific forward and reverse primers were added; 39aa rho-tag; expressed in transfected cells; host or cells: NxG 108CC15 or HEK-293 cells
T6 sequence (Q9Y3N9 1-320 Y252A/Y259A): T1 sequence (Q9Y3N9 1-320 Y252A) with Y259A
As to the kind of experiment: GloSensor assay, OR2W1 Y252A/Y259A. Conditions: ligands 300 µmol/L. How it is done: as §1, §2, §3

The next experiment addresses T7, OR2W1 Y259A (Homo sapiens, UniProt Q9Y3N9, Y259A).
T7 construct: full-length gene-specific forward and reverse primers were added; 39aa rho-tag; expressed in transfected cells; host or cells: NxG 108CC15 or HEK-293 cells
T7 sequence (Q9Y3N9 1-320 Y259A): T1 sequence (Q9Y3N9 1-320 Y252A) with A252Y, Y259A
As to the kind of experiment: GloSensor assay, OR2W1 Y259A. Particulars: ligands 300 µmol/L. The protocol: as §1, §2, §3

The next experiment has as its target T8, OR1A1 wt (Homo sapiens, UniProt Q9P1Q5).
T8 construct: 39aa rho-tag; expressed in transfected cells; host or cells: NxG 108CC15 or HEK-293 cells
T8 sequence (Q9P1Q5 1-309): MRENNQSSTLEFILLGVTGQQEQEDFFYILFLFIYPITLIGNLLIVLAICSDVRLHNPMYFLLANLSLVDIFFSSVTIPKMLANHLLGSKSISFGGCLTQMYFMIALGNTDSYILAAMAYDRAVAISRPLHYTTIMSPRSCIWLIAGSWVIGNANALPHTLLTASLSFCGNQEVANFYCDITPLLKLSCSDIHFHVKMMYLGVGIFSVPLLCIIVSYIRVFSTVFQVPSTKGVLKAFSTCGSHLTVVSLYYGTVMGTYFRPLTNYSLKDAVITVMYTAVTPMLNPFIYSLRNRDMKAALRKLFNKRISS
As to the kind of experiment: cAMP-luminescence GloSensor assay, recombinant OR1A1 wt. Conditions: for EC50: OR1A1 wt. The protocol: as §2, §3

Experiment [1] has as its target sphingosine-1-phosphate receptor 4 (S1P4). As to the kind of experiment: cAMP-luminescence GloSensor assay, endogenously expressed S1P4. Particulars: footnote b: EC50 in nmol/L. How it is done:
as §2, §3

Another experiment has as its target T9, OR2T11 C119R (Homo sapiens, UniProt Q8NH01, C119R).
T9 construct: expressed in transfected cells; host or cells: NxG 108CC15 or HEK-293 cells
As to the kind of experiment: GloSensor assay, OR2T11 C119R.
Text: as §3
Concentration-response relation of 3-mercapto-2-methylpentan-1-ol on OR2M3 in the absence or presence of each 30 µmol/L CuCl2 (a), and 30 µmol/L CuCl2 and the copper chelator TEPA (b). Concentration-response relation of 2-methylpropane-2-thiol on OR2T11 C119R in the absence or presence of 30 µmol/L CuCl2 (c). Concentration-response relation of 3-mercapto-2-methylpentan-1-ol on OR2M3 in the absence or presence of each 30 µmol/L FeCl3 (d); NiCl2 (e); CoCl2 (f); ZnSO4 (g); AgAc (h); AgNO3 (i) and colloidal silver (j). Comparison of efficacies of 20 µmol/L 3-mercapto-2-methylpentan-1-ol on OR2M3 in the absence or presence of different metal ions at 30 µmol/L (k). Note that the same data set in the absence of supplemented Cu^2+ (grey) is given in sub-panels (a-b, d-j) for didactic reasons. Data were mock control-subtracted, normalized to the OR2M3 wt signal in response to 3-mercapto-2-methylpentan-1-ol (20 µmol/L), measured in the absence of Cu^2+ (a-b, d-k) or rather normalized to the OR2T11 C119R signal in response to 2-methylpropan-2-thiol (100 µmol/L), measured in the presence of Cu^2+ (c), and shown as mean ± SD (n = 3 – 6). RLU = relative luminescence unit. 3MMP = 3-mercapto-2-methylpentan-1-ol. Note that for didactical reasons the concentration-response relations in Fig. 1b and Fig. S5a are the identical data set. […]

In another experiment the target is T10, OR2M3 wt (Homo sapiens, UniProt Q8NG83).
T10 construct: full-length gene-specific forward and reverse primers were added; 39aa rho-tag; expressed in transfected cells; host or cells: NxG 108CC15 or HEK-293 cells
T10 sequence (Q8NG83 1-312): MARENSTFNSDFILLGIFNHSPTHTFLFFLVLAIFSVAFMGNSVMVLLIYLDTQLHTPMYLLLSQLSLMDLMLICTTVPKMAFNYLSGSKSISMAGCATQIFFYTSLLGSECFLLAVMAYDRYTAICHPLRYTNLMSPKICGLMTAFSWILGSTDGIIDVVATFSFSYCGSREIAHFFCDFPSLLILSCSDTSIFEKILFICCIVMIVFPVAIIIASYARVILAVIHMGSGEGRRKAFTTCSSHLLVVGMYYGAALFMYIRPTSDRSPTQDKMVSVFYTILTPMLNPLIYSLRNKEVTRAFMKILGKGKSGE
As to the kind of experiment: cAMP-luminescence GloSensor assay, recombinant OR2M3 wt. Conditions: no odorant. How it is done: as §2, §3

[2] abbreviates: EC50 in the presence of Cu^2+, 10 µmol/L Cu^2+.
Where [3] appears, read: 10 µmol/L Cu^2+, read-out: EC50 in the presence of Cu^2+.
Where [4] appears, read: read-out: EC50 in the absence of Cu^2+.
[5] abbreviates: mean ± SD (n = 3–5), read-out: EC50 in the absence of Cu^2+.

Substitutions are numbered along the chain they refer to. Where two headings read alike, the source gives them in different places.

T9 sequence (Q8NH01 whole entry C119R): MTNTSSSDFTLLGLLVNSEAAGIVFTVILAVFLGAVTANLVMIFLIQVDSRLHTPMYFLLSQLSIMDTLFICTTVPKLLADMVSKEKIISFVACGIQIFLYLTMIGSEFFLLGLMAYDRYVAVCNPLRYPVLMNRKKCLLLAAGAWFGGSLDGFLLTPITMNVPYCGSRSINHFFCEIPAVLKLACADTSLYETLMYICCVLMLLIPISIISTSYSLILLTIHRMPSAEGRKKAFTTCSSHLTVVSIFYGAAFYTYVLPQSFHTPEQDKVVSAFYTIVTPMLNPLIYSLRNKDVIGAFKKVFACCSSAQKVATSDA

For the molecule `C=CCOC(=O)Cc1ccccc1` [Allyl phenyl acetate, allyl phenyl acetate], the “agonist function in mutant receptor” value on OR2W1 Y252A, on OR2W1 Y252A/Y259A and at OR2W1 Y259A was “non-functional” each time. Further, the EC50 at OR2W1 L202S (EC50 in the absence of Cu^2+) is 37.6 ± 11.7 µM; on OR2W1 L202S (setting [2]), 46 ± 14.3 µM; at OR2W1 L202C (EC50 in the absence of Cu^2+), 130 ± 82.5 µM; at OR2W1 L202C (setting [2]), 73 ± 42.1 µM; on OR2W1 wt (EC50 in the absence of Cu^2+, mean ± SD (n = 3–5)), 64.4 ± 3.58 µM; at OR2W1 wt (setting [2]) it was 55.2 ± 8.59 µM. For the same molecule, the results for the EC50 at OR2W1 S109A (EC50 in the absence of Cu^2+) and on OR2W1 S109A (setting [2]) were 46 ± 11.6 µM and 119 ± 19.9 µM, respectively.
Take `C=C(C)[C@@H]1CC=C(C)C(=O)C1` [(R)-(-)-Carvone, (R)-(-)-carvone]: the EC50 at OR1A1 wt (setting [3]) was found to be 159 ± 43.1 µM; on OR1A1 wt (setting [4]) it was 126 ± 34.1 µM.
For the molecule `COCCN=C1S/C(=C\c2cc(C)n(-c3ccc(F)cc3F)c2C)C(=O)N1C` [CYM50308], the EC50 was found to be 0.344 ± 0.091 µM in experiment [1] (setting [3]) and 0.517 ± 0.0746 µM in experiment [1] (setting [4]).
For the molecule `CC(C)(C)S` [2-methylpropane-2-thiol], the Relative amplitude at OR2T11 C119R (30 µmol/L CuCl2, normalized to OR2T11 C119R signal (100 µmol/L agonist) in the presence of Cu^2+) is 1. Further, the EC50 at OR2T11 C119R (presence of 30 µmol/L CuCl2 (footnote d)) was 0.25 ± 0.19 µM.
With `CCCC(S)CCOC(C)=O` (stereo not shown) [3-Mercaptohexyl acetate, 3-mercaptohexyl acetate], the “agonist function in mutant receptor” value on OR2W1 Y252A, on OR2W1 Y252A/Y259A and at OR2W1 Y259A was “non-functional” in each case. The EC50 is 311 ± 22.1 µM at OR2W1 L202S (setting [3]); 146 ± 6.48 µM at OR2W1 L202S (setting [4]); 114 ± 10.5 µM at OR2W1 L202C (setting [3]); 98.9 ± 7.49 µM at OR2W1 L202C (setting [4]); 121 ± 1.59 µM on OR2W1 wt (setting [3]); 132 ± 20.9 µM on OR2W1 wt (setting [5]). Besides, the EC50 amounted to 354 ± 113 µM on OR1A1 wt (setting [3]), 405 ± 86.7 µM at OR1A1 wt (setting [4]), 127 ± 84.9 µM at OR2W1 S109A (setting [3]) and 146 ± 23 µM on OR2W1 S109A (setting [4]).
As to `[Cl][Cu][Cl]` [Cu^2+, copper(II) chloride], at OR2M3 wt (Cu^2+ supplementation > 10 µmol/L), the “odorant-independent constitutive activity of OR2M3” value is “decreased”. Besides, the “basal activity of OR2M3” value at OR2M3 wt (Cu^2+ supplementation of 10 µmol/L) is “did not inhibit”.
For `SCCc1ccccc1` [2-Phenylethanethiol, 2-phenylethanethiol], the “agonist function in mutant receptor” value at OR2W1 Y252A, on OR2W1 Y252A/Y259A and at OR2W1 Y259A was “non-functional” each time. In addition, the EC50 came out at 96.7 ± 4.66 µM on OR2W1 L202S (setting [3]); 97 ± 13 µM on OR2W1 L202S (setting [4]); 63.4 ± 3.77 µM at OR2W1 L202C (setting [3]); 65.1 ± 10.8 µM on OR2W1 L202C (setting [4]); 106.2 ± 0.93 µM at OR2W1 wt (setting [3]); 37.8 ± 0.62 µM on OR2W1 wt (setting [5]). Moreover, the concentration for a half-maximal effect (EC50) at OR1A1 wt (setting [3]) came out at 73.1 ± 16.4 µM; at OR1A1 wt (setting [4]), 206 ± 21.5 µM; on OR2W1 S109A (setting [3]) it was 38.9 ± 5.38 µM; on OR2W1 S109A (setting [4]), 34.4 ± 9.98 µM. On OR1A1 wt (presence of Cu^2+ at 10 µmol/L), the “efficacy in activating OR1A1” value is on record as “reduced”.

By EC50 is commonly meant the concentration at which the effect is half-maximal.
